This note sets out measurements from US11242337B2, “Compounds useful for treating gastrointestinal tract disorders” (Ardelyx, Inc., priority 2017, dated 2022).

The structures appear in SMILES notation.

Assay [1] addresses T1, NHE3 (Homo sapiens, UniProt P48764).
T1 construct: expressed in transfected cells
T1 sequence (P48764 26-834): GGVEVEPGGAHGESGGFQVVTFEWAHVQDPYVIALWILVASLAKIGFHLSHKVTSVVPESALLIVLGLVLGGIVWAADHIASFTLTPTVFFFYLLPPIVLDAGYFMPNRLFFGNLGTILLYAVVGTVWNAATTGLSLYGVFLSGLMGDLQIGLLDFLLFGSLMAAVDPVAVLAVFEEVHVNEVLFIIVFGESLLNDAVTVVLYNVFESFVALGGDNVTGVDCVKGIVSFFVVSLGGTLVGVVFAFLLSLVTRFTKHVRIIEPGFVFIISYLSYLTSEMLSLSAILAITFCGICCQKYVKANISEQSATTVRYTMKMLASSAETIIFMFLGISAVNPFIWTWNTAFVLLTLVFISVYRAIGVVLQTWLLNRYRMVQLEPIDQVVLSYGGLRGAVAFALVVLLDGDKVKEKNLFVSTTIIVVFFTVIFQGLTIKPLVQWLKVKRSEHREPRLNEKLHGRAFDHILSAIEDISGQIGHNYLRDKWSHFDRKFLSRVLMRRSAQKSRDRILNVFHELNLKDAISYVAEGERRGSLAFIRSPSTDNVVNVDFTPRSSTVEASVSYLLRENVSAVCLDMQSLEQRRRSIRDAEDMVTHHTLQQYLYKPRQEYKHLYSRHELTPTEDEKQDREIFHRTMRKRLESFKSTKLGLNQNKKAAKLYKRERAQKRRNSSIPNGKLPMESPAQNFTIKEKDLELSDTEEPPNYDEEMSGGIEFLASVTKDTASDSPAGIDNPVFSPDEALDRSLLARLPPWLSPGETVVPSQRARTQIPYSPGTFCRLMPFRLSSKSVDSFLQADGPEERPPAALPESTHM
T1 sequence (Q99653 2-195 partner limits assumed): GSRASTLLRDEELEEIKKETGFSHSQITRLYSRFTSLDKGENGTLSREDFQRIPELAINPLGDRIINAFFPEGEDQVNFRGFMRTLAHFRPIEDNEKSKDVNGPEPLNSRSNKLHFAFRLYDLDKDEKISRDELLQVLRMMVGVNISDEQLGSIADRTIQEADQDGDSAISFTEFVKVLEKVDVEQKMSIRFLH
The assay can be described thus: Cell-based assay of NHE-3 activity (pre-incubation inhibition), human. To be noted: human Preincubation. A digest of the protocol: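 PS120 fibroblasts stably expressing human NHE3 and NHERF2, loaded 30 min at 37 °C with 5 μM BCECF-AM in NH4Cl buffer, then acidified 10 min at room temperature in Na+-free buffer with 0–30 μM compound. Initial rate of BCECF fluorescence ratio change (FLIPR) per minute taken as Na+/H+ activity.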

The test system of assay [2] is human duodenum monolayer culture. The experiment in a line: Sustained inhibition of apical acid secretion in human organoid monolayer cell cultures (duodenum). It is filed as cell-based. To be noted: Homo sapiens. A digest of the protocol: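 Duodenum organoid cells were plated on Transwells, differentiated with EGF/noggin/A83-01 from day 3, and dosed apically on day 6 with compound at 1 μM final (DMSO vehicle control), in duplicate wells, at 37° C, 5% CO2. Apical media pH was measured by electrode on day 8.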

Turning to `CN(C)[C@H]1CCCN([C@H]2Cc3c(C#N)cc(Cl)cc3[C@@H]2Oc2ccc(S(=O)(=O)NCCOCCOCCNC(=O)NCCCCNC(=O)NCCOCCOCCNS(=O)(=O)c3ccc(O[C@H]4c5cc(Cl)cc(C#N)c5C[C@@H]4N4CCC[C@H](N(C)C)C4)cc3)cc2)C1` [Example 122, 4-([(1S,2S)-6-Chloro-4-cyano-2-[(S)-3-(dimethylamino)piperidin-1-yl]-2,3-dihydro-1H-inden-1-yl]oxy)-N-[26-([4-([(1S,2S)-6-chloro-4-cyano-2-[(S)-3-(dimethylamino)piperidin-1-yl]-2,3-dihydro-1H-inden-1-yl]oxy)phenyl]sulfonamido)-10,17-dioxo-3,6,21,24-tetraoxa-9,11,16,18-tetraazahexacosyl]benzenesulfonamide], the “% inhibition” value in assay [1] is “C (>70%)”. Further, the pIC50 entry in assay [1] (0-30 μM test compound) was “C (NHE3 pIC50 > 7)”. Besides, the inhibition (in general, the relative decrease from the control value, in per cent) at 1 µM in assay [2] was over 70%.

With `N#Cc1cc(Cl)cc2c1C[C@H](N1CCNCC1)[C@H]2Oc1ccc(S(=O)(=O)NC2CCN(CCOCCNC(=O)NCCCCNC(=O)NCCOCCN3CCC(NS(=O)(=O)c4ccc(O[C@H]5c6cc(Cl)cc(C#N)c6C[C@@H]5N5CCNCC5)cc4)CC3)CC2)cc1` [Example 123, 4-([(1S,2S)-6-Chloro-4-cyano-2-(piperazin-1-yl)-2,3-dihydro-1H-inden-1-yl]oxy)-N-[1-(20-[4-([4-([(1S,2S)-6-chloro-4-cyano-2-(piperazin-1-yl)-2,3-dihydro-1H-inden-1-yl]oxy)phenyl]sulfonamide]piperidin-1-yl)-7,14-dioxo-3,18-dioxa-6,8,13,15-tetraazaicosyl]piperidin-4-yl)benzenesulfonamide], the “% inhibition” value in assay [1] is “C (>70%)”. In assay [1] (0-30 μM test compound), the pIC50 entry is recorded as “C (NHE3 pIC50 > 7)”. Further, the inhibition at 1 µM in assay [2] was over 70%.

Regarding `N#Cc1cc(Cl)cc2c1C[C@H](N1CCCNCC1)[C@H]2Oc1ccc(S(=O)(=O)N[C@H]2CCN(CCOCCNC(=O)NCCCCNC(=O)NCCOCCN3CC[C@H](NS(=O)(=O)c4ccc(O[C@H]5c6cc(Cl)cc(C#N)c6C[C@@H]5N5CCCNCC5)cc4)C3)C2)cc1` [Example 126, 4-([(1S,2S)-6-Chloro-4-cyano-2-(1,4-diazepan-1-yl)-2,3-dihydro-1H-inden-1-yl]oxy)-N—[(S)-1-(20-[(S)-3-([4-([(1S,2S)-6-chloro-4-cyano-2-(1,4-diazepan-1-yl)-2,3-dihydro-1H-inden-1-yl]oxy)phenyl]sulfonamido)pyrrolidin-1-yl]-7,14-dioxo-3,18-dioxa-6,8,13,15-tetraazaicosyl)pyrrolidin-3-yl]benzenesulfonamide], in assay [1], the “% inhibition” value is “C (>70%)”. Moreover, the IC50 (in general, the point on the concentration scale where inhibition reaches its midpoint) in assay [1] (0-30 μM test compound) is under 100 nM. In assay [2], this molecule displayed an inhibition at 1 µM of under 50%.
